Measured values reported in ChEMBL document CHEMBL1201862, “PubChem BioAssay data set” (2004).
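A five-concentration, 48-hour dose response in 96-well plates underlies each endpoint, interpolated linearly between surrounding concentrations. Here, GI50 denotes the concentration required for 50% inhibition of growth.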 Activity calls are given as the source filed them. No stated cut-off is given here; in the data, active = GI50 up to about 1.1 µM and inactive = higher.

Legend:
Assay in all cases: NCI-60 cell line screen, 48 h
LOX IMVI = test system: LOX IMVI
UACC-257 = test system: UACC-257
786-0 = test system: 786-0
HCT-15 = test system: HCT-15
SF-268 = test system: SF-268
NCI/ADR-RES = test system: NCI/ADR-RES
SF-539 = test system: SF-539
HL-60 = test system: HL-60
IGROV-1 = test system: IGROV-1
MDA-MB-435 = test system: MDA-MB-435
PC-3 = test system: PC-3
A498 = test system: A498
SW-620 = test system: SW-620
CCRF-CEM = test system: CCRF-CEM
RPMI-8226 = test system: RPMI-8226
NCI-H226 = test system: NCI-H226
M14 = test system: M14
EKVX = test system: EKVX
OVCAR-4 = test system: OVCAR-4
SK-MEL-2 = test system: SK-MEL-2

Compound | GI50 (LOX IMVI) | GI50 (UACC-257) | GI50 (786-0) | GI50 (HCT-15) | GI50 (SF-268) | GI50 (NCI/ADR-RES) | GI50 (SF-539) | GI50 (HL-60) | GI50 (IGROV-1) | GI50 (MDA-MB-435) | GI50 (PC-3) | GI50 (A498) | GI50 (SW-620) | GI50 (CCRF-CEM) | GI50 (RPMI-8226) | GI50 (NCI-H226) | GI50 (M14) | GI50 (EKVX) | GI50 (OVCAR-4) | GI50 (SK-MEL-2)
Cc1nc(C)c(N2CCN(C(=O)NC(CCC(=O)O)C(=O)O)CC2)c(O)n1 (stereo not given) | > 100 µM (inactive) | > 100 µM (inactive) | > 100 µM (inactive) | > 100 µM | > 100 µM (inactive) | > 100 µM (inactive) | > 100 µM (inactive) | > 100 µM (inactive) | > 100 µM (inactive) | > 100 µM (inactive) | > 100 µM (inactive) | > 100 µM (inactive) | > 100 µM (inactive) | > 100 µM (inactive) | > 100 µM (inactive) | > 100 µM (inactive) | > 100 µM (inactive) | > 100 µM (inactive) | > 100 µM (inactive) | 
CCCCCCCCCCCCNC(=O)CCC(NC(=O)c1ccc(N(C)Cc2cnc3nc(N)nc(N)c3n2)cc1)C(=O)NCCCCCCCCCCCC (stereo not given) | 17 µM (inactive) | > 100 µM (inactive) | 22.6 µM (inactive) | > 100 µM | 78.3 µM (inactive) | > 100 µM (inactive) | > 100 µM (inactive) | 31.8 µM (inactive) | 36.1 µM (inactive) | 52.8 µM (inactive) | > 100 µM (inactive) | 42.8 µM (inactive) | 29.6 µM (inactive) | 25.8 µM (inactive) | > 100 µM (inactive) | > 100 µM (inactive) | 56.5 µM (inactive) | > 100 µM (inactive) | 64.1 µM (inactive) | 30 µM (inactive)
Nc1ccc2c3c1cccc3c(=O)n1c3ccc(Cc4ccc5c(c4)nc4c6ccc(N)c7cccc(c(=O)n54)c76)cc3nc21 | > 100 µM (inactive) | > 100 µM (inactive) | > 100 µM (inactive) |  |  | > 100 µM (inactive) | > 100 µM (inactive) | > 100 µM (inactive) | > 100 µM (inactive) | > 100 µM (inactive) | > 100 µM (inactive) | > 100 µM (inactive) | > 100 µM (inactive) | > 100 µM (inactive) | > 100 µM (inactive) | > 100 µM (inactive) | > 100 µM (inactive) | > 100 µM (inactive) | > 100 µM (inactive) | > 100 µM (inactive)
COC(=O)C1=C(C(=O)OC)C(C(=O)c2ccc(Br)cc2)N2N=C(c3ccc(Cl)cc3)C=CC12 (stereo not given) | > 100 µM (inactive) | > 100 µM (inactive) | > 100 µM (inactive) | > 100 µM | 69.7 µM (inactive) | > 100 µM (inactive) |  | > 100 µM (inactive) | > 100 µM (inactive) | > 100 µM (inactive) | 80.4 µM (inactive) | > 100 µM (inactive) | > 100 µM (inactive) | > 100 µM (inactive) | > 100 µM (inactive) | > 100 µM (inactive) | > 100 µM (inactive) | > 100 µM (inactive) | > 100 µM (inactive) | > 100 µM (inactive)
NNC(=O)c1ccc[n+](CCc2ccccc2)c1 | > 100 µM (inactive) | > 100 µM (inactive) | > 100 µM (inactive) | > 100 µM | > 100 µM (inactive) | > 100 µM (inactive) |  | > 100 µM (inactive) | > 100 µM (inactive) | > 100 µM (inactive) | > 100 µM (inactive) | > 100 µM (inactive) | > 100 µM (inactive) |  | > 100 µM (inactive) | > 100 µM (inactive) | > 100 µM (inactive) | > 100 µM (inactive) | > 100 µM (inactive) | 
CCOC(=O)CCC(NC(=O)Cc1ccc(Nc2nc3ccccc3nc2-c2ccccc2)cc1)C(=O)OCC (stereo not given) | > 100 µM (inactive) | > 100 µM (inactive) | 7.83 µM (inactive) | > 100 µM | 5.26 µM (inactive) | 50.5 µM (inactive) | 20 µM (inactive) | > 100 µM (inactive) | 51.8 µM (inactive) | > 100 µM (inactive) | 17.4 µM (inactive) | 37 µM (inactive) | > 100 µM (inactive) | > 100 µM (inactive) |  | 72.1 µM (inactive) | 65.6 µM (inactive) | 63 µM (inactive) | 6.79 µM (inactive) | 16.5 µM (inactive)
CCC(C(=O)C(=O)C(CC)P1(=O)OC(C)(C)CN1C(C)(C)C)P1(=O)OC(C)(C)CN1C(C)(C)C (stereo not given) | > 100 µM (inactive) | > 100 µM (inactive) | > 100 µM (inactive) | > 100 µM | > 100 µM (inactive) | > 100 µM (inactive) | > 100 µM (inactive) | > 100 µM (inactive) | > 100 µM (inactive) | > 100 µM (inactive) | > 100 µM (inactive) | > 100 µM (inactive) | > 100 µM (inactive) | > 100 µM (inactive) | 43.6 µM (inactive) | > 100 µM (inactive) | > 100 µM (inactive) | > 100 µM (inactive) |  | > 100 µM (inactive)
CC(=O)OCC1OC(n2c(C#N)cc(=O)[nH]c2=O)CC1OC(C)=O (stereo not given) | > 100 µM (inactive) | > 100 µM (inactive) | > 100 µM (inactive) | > 100 µM | > 100 µM (inactive) | > 100 µM (inactive) | > 100 µM (inactive) | > 100 µM (inactive) | > 100 µM (inactive) | > 100 µM (inactive) | > 100 µM (inactive) | > 100 µM (inactive) | > 100 µM (inactive) | > 100 µM (inactive) |  | > 100 µM (inactive) | > 100 µM (inactive) | > 100 µM (inactive) | > 100 µM (inactive) | > 100 µM (inactive)
CN(C)/C=N/c1ccc2nonc2c1 |  | > 100 µM (inactive) | > 100 µM (inactive) | > 100 µM | > 100 µM (inactive) | > 100 µM (inactive) | > 100 µM (inactive) | > 100 µM (inactive) | > 100 µM (inactive) | > 100 µM (inactive) | > 100 µM (inactive) | > 100 µM (inactive) | > 100 µM (inactive) | > 100 µM (inactive) | > 100 µM (inactive) | > 100 µM (inactive) | > 100 µM (inactive) | > 100 µM (inactive) | > 100 µM (inactive) | > 100 µM (inactive)
C=C1OC2OC(C)C(NC(=O)OCC(Cl)(Cl)Cl)C(OC(C)=O)C2O1 (stereo not given) | > 100 µM (inactive) | > 100 µM (inactive) | > 100 µM (inactive) | > 100 µM | > 100 µM (inactive) | > 100 µM (inactive) | > 100 µM (inactive) | > 100 µM (inactive) | > 100 µM (inactive) | > 100 µM (inactive) | > 100 µM (inactive) | > 100 µM (inactive) | > 100 µM (inactive) | > 100 µM (inactive) | > 100 µM (inactive) | 43.6 µM (inactive) | > 100 µM (inactive) | > 100 µM (inactive) | > 100 µM (inactive) | 
CN(C)CCCC1c2ccccc2Oc2ccc(C(F)(F)F)cc21 (stereo not given) | 15.6 µM (inactive) | 11.6 µM (inactive) | 12.4 µM (inactive) | 16.1 µM | 14.3 µM (inactive) | 13.7 µM (inactive) | 13.3 µM (inactive) | 12.1 µM (inactive) | 14 µM (inactive) | 6.64 µM (inactive) | 13.7 µM (inactive) | 10.8 µM (inactive) | 15.4 µM (inactive) | 9.42 µM (inactive) | 8.2 µM (inactive) | 8.2 µM (inactive) | 5.75 µM (inactive) | 15.9 µM (inactive) | 14.5 µM (inactive) | 14.6 µM (inactive)
COC(=O)C(Cc1c[nH]c2ccccc12)NP(=O)(O)OCC1OC(n2cc(Br)c(=O)[nH]c2=O)CC1O (stereo not given) | > 100 µM (inactive) | > 100 µM (inactive) | > 100 µM (inactive) | > 100 µM | > 100 µM (inactive) | > 100 µM (inactive) | > 100 µM (inactive) | > 100 µM (inactive) | > 100 µM (inactive) | > 100 µM (inactive) | > 100 µM (inactive) | > 100 µM (inactive) | > 100 µM (inactive) | > 100 µM (inactive) |  | > 100 µM (inactive) | > 100 µM (inactive) | > 100 µM (inactive) | > 100 µM (inactive) | > 100 µM (inactive)
Cc1cccc(-c2cc(O)c3cc(C)cnc3n2)c1 | 0.478 µM (active) |  | 0.361 µM (active) | 0.183 µM | 0.724 µM (active) | 0.122 µM (active) | 0.213 µM (active) | 0.0338 µM (active) | 0.54 µM (active) | 0.0185 µM (active) | 0.189 µM (active) | 0.372 µM (active) | 0.0475 µM (active) | 0.202 µM (active) | 0.239 µM (active) | 0.238 µM (active) | 0.0998 µM (active) | 0.705 µM (active) | 1.95 µM (inactive) | 0.224 µM (active)
O=C(O)[C@@H]1CCCN1 [PROLINE] | > 100 µM (inactive) | > 100 µM (inactive) | > 100 µM (inactive) | > 100 µM | > 100 µM (inactive) | > 100 µM (inactive) | > 100 µM (inactive) | > 100 µM (inactive) | > 100 µM (inactive) | > 100 µM (inactive) | > 100 µM (inactive) | > 100 µM (inactive) | > 100 µM (inactive) |  | > 100 µM (inactive) | > 100 µM (inactive) | > 100 µM (inactive) | > 100 µM (inactive) | > 100 µM (inactive) | > 100 µM (inactive)
